Reference: ChEMBL document CHEMBL1201862, “PubChem BioAssay data set” (2004)
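How tested: cells in 96-well plates exposed to compound for 48 hours at five concentrations. Abbreviation: GI50, concentration required for 50% inhibition of growth.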 Calls of active or inactive are those of the source. Rule as the data show it: active = GI50 up to about 1.1 µM and inactive = higher.

Legend:
Test in all cases: DTP human tumour cell line panel, 48 h
[1] = tested on: NCI-H522
[2] = tested on: MDA-MB-435
[3] = tested on: OVCAR-3
[4] = tested on: LOX IMVI
[5] = tested on: KM12
[6] = tested on: UACC-257
[7] = tested on: Malme-3M
[8] = tested on: SK-OV-3
[9] = tested on: SK-MEL-2
[10] = tested on: A498
[11] = tested on: CCRF-CEM
[12] = tested on: DU-145
[13] = tested on: COLO 205
[14] = tested on: HL-60
[15] = tested on: HOP-62
[16] = tested on: HCT-15
[17] = tested on: RXF 393
[18] = tested on: IGROV-1
[19] = tested on: T47D
[20] = tested on: SR

Structure (SMILES): O=C1C=CC(=O)c2cc(Sc3ccccc3)c(=O)ccc21
- GI50 [1]: 2.32 µM (inactive)
- GI50 [2]: 25.5 µM (inactive)
- GI50 [3]: 16.9 µM (inactive)
- GI50 [4]: 13.1 µM (inactive)
- GI50 [5]: 18.1 µM (inactive)
- GI50 [6]: 18 µM (inactive)
- GI50 [7]: 12.7 µM (inactive)
- GI50 [8]: 26 µM (inactive)
- GI50 [9]: 13.6 µM (inactive)
- GI50 [10]: 16.2 µM (inactive)
- GI50 [11]: 1.76 µM (inactive)
- GI50 [12]: 17.4 µM (inactive)
- GI50 [13]: 7.73 µM (inactive)
- GI50 [14]: 0.877 µM (active)
- GI50 [15]: 28.6 µM (inactive)
- GI50 [16]: 13.5 µM
- GI50 [17]: 12.3 µM (inactive)
- GI50 [18]: 18.5 µM (inactive)
- GI50 [19]: 3.41 µM (inactive)
- GI50 [20]: 1.58 µM (inactive)

Structure (SMILES): Oc1ccc(-c2c3ccccc3c(-c3ccc(OCCBr)cc3)c3ccccc23)cc1
- GI50 [1]: 35 µM (inactive)
- GI50 [2]: 21.7 µM (inactive)
- GI50 [3]: 14.6 µM (inactive)
- GI50 [4]: 16.9 µM (inactive)
- GI50 [5]: 29.4 µM (inactive)
- GI50 [6]: 24.2 µM (inactive)
- GI50 [7]: 14.7 µM (inactive)
- GI50 [8]: 52.7 µM (inactive)
- GI50 [9]: 22.2 µM (inactive)
- GI50 [10]: 23.2 µM (inactive)
- GI50 [11]: 60.1 µM (inactive)
- GI50 [12]: > 100 µM (inactive)
- GI50 [13]: 31.2 µM (inactive)
- GI50 [14]: 47.5 µM (inactive)
- GI50 [15]: 24 µM (inactive)
- GI50 [16]: 30.7 µM
- GI50 [17]: 24.7 µM (inactive)
- GI50 [18]: 22 µM (inactive)
- GI50 [19]: 35.7 µM (inactive)
- GI50 [20]: 31.8 µM (inactive)

Structure (SMILES): C[C@@H]1CC[C@@]2(C)[C@H](C)/C(=C\COC(=O)/C=C/c3ccc(O)c(O)c3)CC[C@@]12C [NAVICULYL CAFFEATE]
- GI50 [1]: 1.28 µM (inactive)
- GI50 [2]: 3.33 µM (inactive)
- GI50 [3]: 8.63 µM (inactive)
- GI50 [4]: 6.01 µM (inactive)
- GI50 [5]: 3.95 µM (inactive)
- GI50 [6]: 11.8 µM (inactive)
- GI50 [7]: 14 µM (inactive)
- GI50 [8]: 12.4 µM (inactive)
- GI50 [9]: 12.6 µM (inactive)
- GI50 [10]: 12.9 µM (inactive)
- GI50 [11]: 1.11 µM (active)
- GI50 [12]: 8.02 µM (inactive)
- GI50 [13]: 3.61 µM (inactive)
- GI50 [14]: 5.26 µM (inactive)
- GI50 [15]: 13.1 µM (inactive)
- GI50 [16]: 4.1 µM
- GI50 [17]: 15.7 µM (inactive)
- GI50 [18]: 7.31 µM (inactive)
- GI50 [19]: 12.6 µM (inactive)
- GI50 [20]: 2.41 µM (inactive)

Structure (SMILES): Cc1ccc(-c2cn3c(nc4ccccc43)c(-c3ccccc3)n2)cc1
- GI50 [1]: 20.5 µM (inactive)
- GI50 [2]: > 100 µM (inactive)
- GI50 [3]: > 100 µM (inactive)
- GI50 [4]: > 100 µM (inactive)
- GI50 [5]: > 100 µM (inactive)
- GI50 [6]: > 100 µM (inactive)
- GI50 [7]: > 83 µM (inactive)
- GI50 [8]: 18.3 µM (inactive)
- GI50 [9]: 18 µM (inactive)
- GI50 [10]: 30.9 µM (inactive)
- GI50 [11]: > 100 µM (inactive)
- GI50 [12]: > 100 µM (inactive)
- GI50 [13]: > 100 µM (inactive)
- GI50 [14]: > 100 µM (inactive)
- GI50 [15]: 15.6 µM (inactive)
- GI50 [16]: > 100 µM
- GI50 [17]: 25.1 µM (inactive)
- GI50 [18]: 37.9 µM (inactive)
- GI50 [19]: 32.1 µM (inactive)
- GI50 [20]: > 100 µM (inactive)

Structure (SMILES): Cc1nn2c(=O)c([N+](=O)[O-])c(/C=C/c3ccccc3)nc2s1
- GI50 [1]: 3.3 µM (inactive)
- GI50 [2]: 2 µM (inactive)
- GI50 [3]: 4.95 µM (inactive)
- GI50 [4]: 1.57 µM (inactive)
- GI50 [5]: 3.13 µM (inactive)
- GI50 [6]: 8.57 µM (inactive)
- GI50 [7]: 13.3 µM (inactive)
- GI50 [8]: 7.33 µM (inactive)
- GI50 [9]: 3.1 µM (inactive)
- GI50 [10]: 10.4 µM (inactive)
- GI50 [11]: 2.21 µM (inactive)
- GI50 [12]: 3.74 µM (inactive)
- GI50 [13]: 5.14 µM (inactive)
- GI50 [14]: 2.28 µM (inactive)
- GI50 [15]: 5.43 µM (inactive)
- GI50 [16]: 3.08 µM
- GI50 [17]: 3.41 µM (inactive)
- GI50 [18]: 5.51 µM (inactive)
- GI50 [19]: 3.72 µM (inactive)
- GI50 [20]: 2.43 µM (inactive)

Structure (SMILES): CC1(C)COC2=C(C1)C(=O)c1ccccc1C2=O
- GI50 [1]: 1.85 µM (inactive)
- GI50 [2]: 0.195 µM (active)
- GI50 [3]: 0.75 µM (active)
- GI50 [4]: 1.88 µM (inactive)
- GI50 [5]: 1.76 µM (inactive)
- GI50 [6]: 0.828 µM (active)
- GI50 [7]: 1.88 µM (inactive)
- GI50 [8]: 1.88 µM (inactive)
- GI50 [9]: 1.91 µM (inactive)
- GI50 [10]: 2.1 µM (inactive)
- GI50 [11]: 2.37 µM (inactive)
- GI50 [12]: 1.64 µM (inactive)
- GI50 [13]: 2.2 µM (inactive)
- GI50 [14]: 0.583 µM (active)
- GI50 [15]: 1.99 µM (inactive)
- GI50 [16]: 0.701 µM
- GI50 [17]: 2.02 µM (inactive)
- GI50 [18]: 1.65 µM (inactive)
- GI50 [19]: 0.558 µM (active)
- GI50 [20]: 2.66 µM (inactive)
